Measurements taken from US20240262842A1, “SMALL MOLECULE INHIBITORS OF KRAS G12C MUTANT” (Merck Sharp & Dohme LLC, priority 2021, published 2024).
Read-outs that look alike come from different tables or passages of the source.

Experiments:
[1] = biological target: T1, interaction between GMPPNP-bound recombinant K-Ras4B G12C mutant protein and cRAF RAS-binding domain (cRAF-RBD) (Homo sapiens, UniProt P01116, G12C); experiment: Inhibitory activity on interaction between KRAS G12C and cRAF (Alpha technology)
T1 construct: His-tag (N)
T1 sequence (P01116 with tags, fused parts or gaps isoform P01116-2 G12C): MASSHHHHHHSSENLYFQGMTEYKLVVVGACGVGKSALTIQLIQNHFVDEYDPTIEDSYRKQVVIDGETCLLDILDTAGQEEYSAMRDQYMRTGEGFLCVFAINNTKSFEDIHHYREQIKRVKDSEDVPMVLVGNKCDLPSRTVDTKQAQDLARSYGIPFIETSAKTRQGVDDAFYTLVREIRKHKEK
How it was run: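 Alpha signal measured 1.5 h after adding cRAF-RBD (aa 50-132) and detection reagents to GMPPNP-bound KRAS G12C (aa 1-169) pretreated 1 h at 25° C with compound (pH 7.5 buffer). 0% inhibition = DMSO, 100% = GDP-loaded KRAS; IC50 by curve fit.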

[2] = tested on: MIA PaCa-2 cells; experiment: Growth inhibition activity on KRAS-G12C mutant cell line (CellTiter-Glo 3D); type: cell-based, human; settings: MIA PaCa-2, 3-day culture with compound
How it was run: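 IC50 (nM) derived from inhibition of luminescence (CellTiter-Glo 3D) relative to compound-free wells. Cells were seeded in U-bottom plates, grown 1 day, then exposed to compound for 3 days at 37 °C with 0.2% final DMSO.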

[3] = IC50, GMPPNP-bound KRAS G12C incubated with compound 25° C. 1 hour, Table 2
[4] = GMPPNP-bound KRAS G12C incubated with compound 25° C. 1 hour, Table 2-1, read-out: IC50
[5] = Homo sapiens, MIA PaCa-2, 72 h, Table 3-1
[6] = GMPPNP-bound KRAS G12C incubated with compound 25° C. 1 hour, Table 2, read-out: IC50
[7] = Homo sapiens, MIA PaCa-2, 72 h, Table 3
[8] = IC50, GMPPNP-bound KRAS G12C incubated with compound 25° C. 1 hour, Table 2-1

SMILES | IC50 [1, 4] | IC50 [2, 5] | further results
CO[C@H]1CC[C@H](NC/C=C/C(=O)Nc2c(F)cc(C(=O)c3cn4c5c(cccc35)-c3c(C(F)(F)F)cc5c(nc(C)n5C)c3OCC4)cc2F)CC1 (single isomer, unassigned) [Example 12-1, (E)-N-(4-(8,9-dimethyl-6-(trifluoromethyl)-12,13-dihydro-8H-imidazo[4″,5″:3′,4′]benzol[1′,2′:7,8][1,4]oxazocino[6,5,4-hi]indole-2-carbonyl)-2,6-difluorophenyl)-4-(((1r,4r)-4-methoxycyclohexyl)amino)but-2-enamide] | – | – | IC50 [1, 3]: 5 nM; IC50 ([2]; Table 3): 1 nM
Cn1cnc2c3c(c(C(F)(F)F)cc21)-c1cccn2c(C(=O)c4cc(F)c(NC(=O)/C=C/CN5CC[C@H](O)C5)c(F)c4)cc(c12)CCO3 [Example 150, (S,E)-N-(2,6-difluoro-4-(9-methyl-7-(trifluoro-methyl)-13,14-dihydro-9H-imidazo[4″,5″:5′,6′]-benzo[1′,2′:2,3]oxocino-[4,5,6-hi]indolizine-2-carbonyl)phenyl)-4-(3-hydroxypyrrolidin-1-yl)-but-2-enamide] | 17.1 nM | 31.2 nM | –
CO[C@H]1CC[C@H](NC/C=C/C(=O)Nc2c(F)cc(C(=O)c3cc4c5c(cccn35)-c3c(C(F)(F)F)cc5c(nc(C)n5C)c3OC(C)C4)cc2F)CC1 (single isomer, unassigned) [Example 42-1, (E)-N-(2,6-difluoro-4-(9,10,13-trimethyl-7-(trifluoromethyl)-13,14-dihydro-9H-imidazo[4″,5″:5′,6′]benzo[1′,2′:2,3]oxocino[4,5,6-hi]indolizine-2-carbonyl)phenyl)-4-(((1r,4r)-4-methoxycyclohexyl)amino)but-2-enamide] | – | – | IC50 [1, 6]: 11 nM; IC50 ([2]; Table 3): 6 nM
CO[C@H]1CC[C@H](NC/C=C/C(=O)Nc2c(F)cc(C(=O)c3cn4c5c(cccc35)-c3c(C)cc5c(nc(C)n5C)c3OCC(F)(F)C4)cc2F)CC1 [Example 26, (E)-N-(4-(13,13-difluoro-6,8,9-trimethyl-13,14-dihydro-8H,12H-imidazo[4″,5″:3′,4′]benzol[1′,2′:8,9][1,5]oxazonino[7,6,5-hi]indole-2-carbonyl)-2,6-difluorophenyl)-4-(((1r,4r)-4-methoxycyclohexyl)amino)but-2-enamide] | – | – | IC50 [1, 3]: 100 nM; IC50 [2, 7]: 130 nM
COc1cc2c(nc(C)n2C)c2c1-c1cccn3c(C(=O)c4cc(F)c(NC(=O)/C=C/CNC5(C)CCCC5)c(F)c4)cc(c13)CCN2C [Example 245, (E)-N-(2,6-difluoro-4-(7-methoxy-9,10,12-trimeth-yl-9,12,13,14-tetrahydro-imidazo[4″,5″:5′,6′]benzo-[1′,2′:2,3]azocino[4,5,6-hi]indolizine-2-carbonyl)-phenyl)-4-((1-methyl-cyclopentyl)amino)but-2-enamide] | 33.1 nM | 25.4 nM | –
Cc1cc2c(nc(C)n2C)c2c1-c1cccc3c(C(=O)c4cc(F)c(NC(=O)/C=C/CNC(C)(C)C(=O)N(C)C)c(F)c4)cn(c13)CCN2C [Example 103] | – | 303 nM | IC50 [1, 8]: 99.2 nM
COCc1nc2c3c(c(C(F)(F)F)cc2n1C)-c1cccn2c(C(=O)c4cc(F)c(NC(=O)/C=C/CNC5(C)CC5)c(F)c4)nc(c12)CCN3C [Example 185, (E)-N-(2,6-difluoro-4-(9-(methoxymethyl)-8,11-dimethyl-6-(trifluorometh-yl)-8,11,12,13-tetrahydro-1,2a,8,10,11-pentaaza-cycloocta[1,2,3-cd:5,4-e′]diindene-2-carbonyl)-phenyl)-4-((1-methyl-cyclopropyl)amino)but-2-enamide] | 40.8 nM | 75.7 nM | –
CO[C@H]1CC[C@H](NC/C=C/C(=O)Nc2c(F)cc(C(=O)c3cn4c5c(cccc35)-c3c(Cl)cccc3OCCCC4)cc2F)CC1 [Example 3, (E)-N-(4-(12-chloro-4,5,6,7-tetrahydrobenzo[2,3][1,6]oxazecino[4,5,6-hi]indole-1-carbonyl)-2,6-difluorophenyl)-4-(((1,4r)-4-methoxycyclohexyl)amino)but-2-enamide] | – | – | IC50 [1, 3]: 2700 nM; IC50 [2, 7]: 4400 nM
CN1CCn2cc(C(=O)c3cc(F)c(NC(=O)/C=C/CNC(C)(C)CF)c(F)c3)c3cccc(c32)-c2c(C(F)(F)F)cc3c(ncn3C)c21 [Example 81, (E)-N-(4-(8,11-dimethyl-6-(trifluoromethyl)-8,11,12,13-tetrahydro-imidazo[4″,5″:5′,6′]benzo-[1′,2′:5,6][1,4]diazocino-[7,8,1-hi]indole-2-carbon-yl)-2,6-difluorophenyl)-4-((1-fluoro-2-methyl-propan-2-yl)amino)but-2-enamide] | – | 33.4 nM | IC50 [1, 8]: 20.8 nM
COc1cc2c(nc(C)n2C)c2c1-c1cccn3c(C(=O)c4cc(F)c(NC(=O)/C=C/CNC56CCC(CC5)OC6)c(F)c4)cc(c13)CCN2C [Example 121] | 23 nM | 26.4 nM | –
Cc1cc2c(nc(C)n2C)c2c1-c1cccc3c(C(=O)c4cc(F)c(NC(=O)/C=C/CN5[C@@H]6CC[C@H]5[C@@H](O)C6)c(F)c4)cn(c13)CCN2C (racemic) [Example 142] | – | 85.5 nM | IC50 [1, 8]: 28.1 nM
CO[C@H]1CC[C@H](NC/C=C/C(=O)Nc2c(F)cc(C(=O)c3c(C)c4c5c(cccn35)-c3c(C(F)(F)F)cc5c(nc(C)n5C)c3OCC4)cc2F)CC1 (single isomer, unassigned) [Example 64, (E)-N-(2,6-difluoro-4-(1,9,10-trimethyl-7-(tri-fluoromethyl)-13,14-dihydro-9H-imidazo-[4″,5″:5′,6′]benzo[1′,2′: 2,3]oxocino[4,5,6-hi]-indolizine-2-carbonyl)-phenyl)-4-(((1r,4r)-4-methoxycyclohexyl)-amino)but-2-enamide] | 14.2 nM | 11 nM | –
Cc1cc2c(nc(C)n2C)c2c1-c1cccc3c(C(=O)c4cc(F)c(NC(=O)/C=C/CNCC(=O)N(C)C)c(F)c4)cn(c13)CCN2C [Example 94, (E)-N-(2,6-difluoro-4-(6,8,9,11-tetramethyl-8,11,12,13-tetrahydro-imidazo[4″,5″:5′,6′]-benzo[1′,2′:5,6][1,4]-diazocino[7,8,1-hi]indole-2-carbonyl)phenyl)-4-((2-(dimethylamino)-2-oxoethyl)amino)but-2-enamide] | – | 73 nM | IC50 [1, 8]: 71.6 nM
CO[C@H]1CC[C@H](NC/C=C/C(=O)Nc2c(F)cc(C(=O)c3c(C)n4c5c(cccc35)-c3c(C(F)(F)F)cc5c(nc(C)n5C)c3OCC4)cc2F)CC1 [Example 25, (E)-N-(2,6-difluoro-4-(1,8,9-trimethyl-6-(trifluoromethyl)-12, 13-dihydro-8H-imidazo[4″,5″:3′,4′]benzo[1′,2′:7,8][1,4]oxazocino[6,5,4-hi]indole-2-carbonyl)phenyl)-4-(((1,4r)-4-methoxycyclohexyl)amino)but-2-enamide] | – | – | IC50 [1, 3]: 39 nM; IC50 [2, 7]: 24 nM
CC1(NC/C=C/C(=O)Nc2c(F)cc(C(=O)c3cc4c5c(cccn35)-c3c(cc(N5CCOC5=O)cc3C(F)(F)F)OCC4)cc2F)CC1 [Example 232, (E)-N-(2,6-difluoro-4-(7-(2-oxooxazolidin-3-yl)-9-(trifluoromethyl)-3.4-dihydrobenzo[2,3]oxo-cino-[4,5,6-hi]indolizine-1-carbonyl)phenyl)-4-((1-methylcyclopropyl)amino)-but-2-enamide] | 49.7 nM | 18 nM | –
CO[C@H]1CC[C@H](NC/C=C/C(=O)Nc2c(F)cc(C(=O)c3cn4c5c(cccc35)-c3c(C)cc5c(nc(C)n5C)c3N(C(C)=O)CC4)cc2F)CC1 [Example 72, (E)-N-(4-(11-acetyl-6,8,9-trimethyl-8,11,12,13-tetra-hydroimidazo[4″,5″: 5′,6′]benzo[1′,2′:2,3][1,4]-diazocino[7,8,1-hi]indole-2-carbonyl)-2,6-difluoro-phenyl)-4-(((1r,4r)-4-methoxycyclohexyl)-amino)but-2-enamide] | – | 1170 nM | IC50 [1, 8]: 97.8 nM
Cc1nc2c3c(c(C(F)(F)F)cc2n1C)-c1cccn2c(C(=O)c4cc(F)c(NC(=O)/C=C/CNC5CCOCC5)c(F)c4)cc(c12)CCO3 [Example 34] | – | – | IC50 [1, 6]: 12 nM; IC50 [2, 7]: 7 nM
CO[C@H]1CC[C@H](NC/C=C/C(=O)Nc2c(F)cc(C(=O)c3cc4c5c(cccn35)-c3c(C(F)(F)F)cc5c(nc(C)n5C)c3OC(C)C4)cc2F)CC1 (single isomer, unassigned) [Example 42-2, (E)-N-(2,6-difluoro-4-(9,10,13-trimethyl-7-(trifluoromethyl)-13,14-dihydro-9H-imidazo[4″,5″:5′,6′]benzo[1′,2′:2,3]oxocino[4,5,6-hi]indolizine-2-carbonyl)phenyl)-4-(((1r,4r)-4-methoxycyclohexyl)amino)but-2-enamide] | – | – | IC50 [1, 6]: 1100 nM; IC50 ([2]; Table 3): 450 nM
COc1cc2c(ncn2C)c2c1-c1cccn3c(C(=O)c4cc(F)c(NC(=O)/C=C/CNC5(C)CC5)c(F)c4)cc(c13)CCN2C (single isomer, unassigned) [Example 160, (E)-N-(2,6-difluoro-4-(7-methoxy-9,12-dimethyl-9,12,13,14-tetrahydro-imidazo[4″,5″:5′,6′]benzo-[1′,2′:2,3]azocino[4,5,6-hi]indolizine-2-carbon-yl)phenyl)-4-((1-methyl-cyclopropyl)amino)but-2-enamide] | 5.71 nM | 9.25 nM | –
